The record followed here is the supplement of paper PMC10307832.

What all share (assay): relative viability (nuclei count vs DMSO), 5 days (fraction); higher = more cells survive
Compound in the experiment “Ispinesib + Dasatinib”: Cc1ccc(C(=O)N(CCCN)[C@@H](c2nc3cc(Cl)ccc3c(=O)n2Cc2ccccc2)C(C)C)cc1 [Ispinesib] + Cc1nc(Nc2ncc(C(=O)Nc3c(C)cccc3Cl)s2)cc(N2CCN(CCO)CC2)n1 [Dasatinib] (partner 0.075 µM)
The method in brief:
(§1)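 Lung cancer cell lines in 1536-well plates were dosed by pin tool the day after seeding, either with one drug alone or with a fixed anchor-drug dose plus five library-drug doses (not always all listed) in √10 steps. After 5 days, cells were fixed and their nuclei stained in one step (final 0.05% Triton X-100, 1% formaldehyde, 1 ug/ml Hoechst), then counted on 4× images. Relative viability is the nuclei count in treated wells divided by that in vehicle wells. Values are medians of duplicate plates.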

Compound in the experiment “Ispinesib + Bortezomib”: Cc1ccc(C(=O)N(CCCN)[C@@H](c2nc3cc(Cl)ccc3c(=O)n2Cc2ccccc2)C(C)C)cc1 [Ispinesib] + CC(C)C[C@H](NC(=O)[C@H](Cc1ccccc1)NC(=O)c1cnccn1)B(O)O [Bortezomib] (partner 0.002 µM)
The gist of the method:
as §1

Compound in the experiment “Linsitinib + Lapatinib”: C[C@]1(O)C[C@@H](c2nc(-c3ccc4ccc(-c5ccccc5)nc4c3)c3c(N)nccn32)C1 [Linsitinib] + CS(=O)(=O)CCNCc1ccc(-c2ccc3ncnc(Nc4ccc(OCc5cccc(F)c5)c(Cl)c4)c3c2)o1 [Lapatinib] (partner 2 µM)
The gist of the method: as §1

Compound in the experiment “Ispinesib + Alpelisib”: Cc1ccc(C(=O)N(CCCN)[C@@H](c2nc3cc(Cl)ccc3c(=O)n2Cc2ccccc2)C(C)C)cc1 [Ispinesib] + Cc1nc(NC(=O)N2CCC[C@H]2C(N)=O)sc1-c1ccnc(C(C)(C)C(F)(F)F)c1 [Alpelisib] (partner 2 µM)
The method in brief: as §1

For the cell line UMC-11, the relative viability is 0.542 with Ispinesib + Dasatinib (first compound 0.001 µM); 0.544 with Ispinesib + Dasatinib (first compound 0.003162 µM); 0.317 in the experiment with Ispinesib + Dasatinib (first compound 0.01 µM); 0.185 with Ispinesib + Dasatinib (first compound 0.03162 µM); 0.233 with Ispinesib + Dasatinib (first compound 0.1 µM); 0.505 in the experiment with Ispinesib + Bortezomib (first compound 0.001 µM). Also, the relative viability in the experiment with Ispinesib + Bortezomib (first compound 0.003162 µM) was found to be 0.72; with Ispinesib + Bortezomib (first compound 0.01 µM) it was 0.657; with Ispinesib + Bortezomib (first compound 0.03162 µM), 0.207; with Ispinesib + Bortezomib (first compound 0.1 µM), 0.183; in the experiment with Linsitinib + Lapatinib (first compound 0.01 µM), 0.889; with Linsitinib + Lapatinib (first compound 0.03162 µM) it was 0.871. Further, the relative viability came to 1.08 with Linsitinib + Lapatinib (first compound 0.1 µM); 0.303 with Linsitinib + Lapatinib (first compound 0.3162 µM); 0.843 with Linsitinib + Lapatinib (first compound 1 µM); 0.944 with Ispinesib + Alpelisib (first compound 0.001 µM); 1.09 with Ispinesib + Alpelisib (first compound 0.003162 µM); 0.99 in the experiment with Ispinesib + Alpelisib (first compound 0.01 µM). For the same cell line, the figures for the relative viability in the experiment with Ispinesib + Alpelisib (first compound 0.03162 µM) and with Ispinesib + Alpelisib (first compound 0.1 µM) were 0.351 and 0.282, respectively.
